Test results reported in patent US8404855B2, “Substituted enaminocarbonyl compounds” (Bayer CropScience AG, priority 2006, dated 2013).

Columns and labels:
[1] = system: green peach aphid (Myzus persicae); test: Myzus persicae test (MYZUPE T), leaf dip; assay type: in vivo; conditions: 20 ppm; cabbage leaves dipped; comparison with prior art
Experimental: (§1) After the desired period of time, the kill in % is determined.

[2] = system: green peach aphid (Myzus persicae); test: Myzus persicae test, hydroponic treatment (MYZUPE sys.); assay type: in vivo; conditions: pea plant in treated water
Experimental: The preparation of active compound is mixed with water. The stated concentration refers to the amount of active compound per volume unit of water (mg/l=ppm). The treated water is filled into containers housing a pea plant (Pisum sativum) which is then infected with the green peach aphid (Myzus persicae).
as §1

[3] = system: cotton aphid (Aphis gossypii); test: Aphis gossypii test (APHIGO), leaf dip; assay type: in vivo; conditions: cotton leaves dipped
Experimental: as §1

Lucilia cuprina larvae = test: Lucilia cuprina test (LUCICU); assay type: in vivo; conditions: treated horse meat
Experimental: as §1

[4] = system: green peach aphid (Myzus persicae); test: Myzus test; oral (MYZUPE O); assay type: in vivo
[5] = system: green peach aphid (Myzus persicae); test: Myzus test (MYZUPE spray treatment); assay type: in vivo
Source text: In this test, for example, the following compounds of the Preparation Examples show good activity: see table

Meloidogyne incognita = test: Meloidogyne test (MELGIN spray treatment); assay type: in vivo; conditions: 20 ppm; gall formation, 100% = no galls; comparison with prior art
Experimental: Containers are filled with sand, active compound solution, Meloidogyne incognita egg/larvae suspension and lettuce seeds. The lettuce seeds germinate and the plants develop. On the roots, galls are formed.
After the desired period of time, the nematicidal activity is determined by the formation of galls in %. 100% means that no galls were found; 0% means that the number of galls on the treated plants corresponds to that of the untreated controls.

Boophilus microplus = Boophilus microplus test (BOOPMI injection); assay type: in vivo; conditions: 20 ppm (so in the source), 100% = no tick has laid fertile eggs, comparison with prior art
Experimental: The solution of active compound is injected into the abdomen (Boophilus microplus), and the animals are transferred into dishes and kept in a temperature-controlled room.
100% means that no tick has laid any fertile eggs.

[6] = system: adult fleas (Ctenocephalides felis); test: Ctenocephalides felis; oral (CTECFE); assay type: in vivo; conditions: 100 ppm in citrated cattle blood
Experimental: Part of the concentrate is diluted with citrated cattle blood, and the desired concentration is prepared.
20 unfed adult fleas (Ctenocephalides felis) are placed into a chamber whose top and bottom ends are closed with gauze. A metal cylinder whose bottom end is closed with parafilm is placed onto the chamber. The cylinder contains the blood/active compound preparation, which can be taken up by the fleas through the parafilm membrane. The blood is warmed to 37° C., but the flea chamber is at room temperature.
as §1

[7] = system: larvae of the mustard beetle (Phaedon cochleariae); test: Phaedon test (PHAECO spray treatment); conditions: 500 g/ha; Chinese cabbage leaf disks sprayed
[8] = 0.8 ppm, comparison with prior art
[9] = 4 ppm, comparison with prior art
[10] = 500 g/ha, Chinese cabbage leaf disks sprayed

For `O=C1C=C(N(Cc2ccc(Cl)nc2)CC(F)F)CO1` [Example 1, 4-[[(6-Chloropyridin-3-yl)methyl](2,2-difluoroethyl)amino]furan-2(5H)-one], the “Kill rate in % after 6 days” value [1] was 95%, the “Kill rate in % after 6 days” value [2, 8] was 100% and the “Kill rate in % after 6 days” value [3, 8] was 60%. The “Kill rate in % after 6 days” value [3, 9] was 98%, the “Kill rate in % after 2 days” value (Lucilia cuprina larvae; [9]) was 100% and the “Kill rate in % after 5 days” value ([4]; 0.032 ppm, oral, comparison with prior art) was 100%. The “Kill rate in % after 5 days” value ([5]; 4 g/ha, leaf disks sprayed, comparison with prior art) was 80%.

For `O=C1C=C(N(CCCF)Cc2ccc(Cl)nc2)CO1` [Example 2, 4-[[(6-Chloropyridin-3-yl)methyl](3-fluoro-n-propyl)amino]furan-2(5H)-one], the “Kill rate in % after 5 days” value ([4]; 20 ppm, oral uptake by sucking) was 100% and the “Kill rate in % after 5 days” value [5, 10] was 100%.

`O=C1C=C(N(CC=C(Cl)Cl)Cc2ccc(Cl)nc2)CO1` [Example 3, 4-[[(6-Chloropyridin-3-yl)methyl](3,3-dichloroprop-2-en-1-yl)amino]furan-2(5H)-one] was tested, and the “Kill rate in % after 5 days” value [5, 10] was 100%.

`O=C1C=C(N(CCF)Cc2ccc(Cl)nc2)CO1` [Example 4, 4-[[(6-Chloropyridin-3-yl)methyl](2-fluoroethyl)amino]furan-2(5H)-one] was tested, and the “Kill rate in % after 14 days” value (Meloidogyne incognita) was 70%, the “Kill rate in % after 6 days” value [1] was 80% and the “Kill rate in % after 6 days” value ([2]; 0.16 ppm, comparison with prior art) was 55%. For the same compound, the “Kill rate in % after 6 days” value [2, 8] was 100%, the “Kill rate in % after 6 days” value [3, 9] was 99% and the “Kill rate in % after 7 days” value (Boophilus microplus) was 100%. The “Kill rate in % after 1 day” value ([6]; comparison with prior art) was 30%.

`CC1OC(=O)C=C1N(Cc1ccc(Cl)nc1)CC(F)F` (centres unmarked) [Example 6, 4-[[(6-Chloropyridin-3-yl)methyl](2,2-difluoroethyl)amino]-5-methylfuran-2(5H)-one] was tested, and the “Kill rate in % after 5 days” value [5, 10] was 100%.

For `O=C1OCC(N(Cc2ccc(Cl)nc2)CC(F)F)=C1Br` [Example 7, 3-Bromo-4-[[(6-chloropyridin-3-yl)methyl](2,2-difluoroethyl)amino]furan-2(5H)-one], the “Kill rate in % after 5 days” value [5, 10] was 100%.

With `O=C1OCC(N(Cc2ccc(Cl)nc2)CC(F)F)=C1Cl` [Example 8, 3-Chloro-4-[[(6-chloropyridin-3-yl)methyl](2,2-difluoroethyl)amino]furan-2(5H)-one] the “Kill rate in % after 6 days” value ([2]; 4 ppm) was 98%, the “Kill rate in % after 6 days” value ([3]; 20 ppm) was 100% and the “Kill rate in % after 2 days” value (Lucilia cuprina larvae; 100 ppm) was 100%. For the same compound, the “Kill rate in % after 5 days” value [5, 10] was 100%.

In the case of `O=C1C=C(N(Cc2ccc(F)nc2)CC(F)F)CO1` [Example 15], the “Kill rate in % after 6 days” value ([2]; 4 ppm) is reported as 100%, the “Kill rate in % after 6 days” value ([3]; 100 ppm) is reported as 100% and the “Kill rate in % after 2 days” value (Lucilia cuprina larvae; 100 ppm) is reported as 90%. The “Kill rate in % after 7 days” value [7] was 100%, the “Kill rate in % after 2 days” value [6] was 90% and the “Kill rate in % after 5 days” value [5, 10] was 100%.

`O=C1C=C(N(Cc2ccc(Cl)nc2)CC(F)Cl)CO1` (centres unmarked) [Example 17, 4-[[(6-chloropyridin-3-yl)methyl](2-chloro-2-fluoroethyl)amino]furan-2(5H)-one] was tested, and the “Kill rate in % after 7 days” value [7] was 100% and the “Kill rate in % after 5 days” value [5, 10] was 100%.

In the case of “(E/Z)-4-[[(6-Chloropyridin-3-yl)methyl](2-fluorovinyl)amino]-5-methylfuran-2(5H)-one [Example 5]”, the “Kill rate in % after 5 days” value [5, 10] is reported as 100%.
